According to patent publication US20240409475A1, “INTERMEDIATE-RELEASE FERTILIZERS AND METHODS FOR MAKING SAME” (OSTARA NUTRIENT RECOVERY TECHNOLOGES INC., priority 2021, published 2024):

Test system: canola
Assay: canola germination as a function of phosphate application rate
Type: in vivo
Conditions: media containing increasing concentrations of phosphate application
Text: FIG. 8 is a graph showing germination rate for canola as a function of phosphate applicant rate for various sources of phosphorus listed in Table 2.

SMILES | germination of canola seedlings
N.N.O=P(O)(O)O [DAP, Di-Ammonium Phosphate] | inhibited at even the lowest application rate
N.O=P(O)(O)O [MAP, Mono-Ammonium Phosphate] | inhibited at even the lowest application rate
